Results as given in patent publication US10179767B2 (GENENTECH, INC., priority 2015, dated 2019).

Each compound was assayed against T1, hNav1.7 (Homo sapiens, UniProt Q15858) (assay: Tritiated sulfonamide binding to membranes from cells expressing hNav1.7 and the β1 subunit (Nav 1.7 ligand binding assay, competitive)). Conditions: competition with 100 pM [3H]compound, room temperature, 18 h.
T1 construct: expressed in transfected cells
Experimental: Tritiated Sulfonamide Binding to Membranes Isolated from Cells that Heterologously Express hNav1.7 and the β1 Subunit
Preparation of membranes containing recombinantly expressed sodium channels: Frozen recombinant cell pellets were thawed on ice and diluted to 4 times the cell pellet weight with ice cold 50 mM Tris HCl, pH 7.4 buffer. The cell suspensions were homogenized on ice using a motorized glass dounce homogeniser. Homogenates were further diluted 8.4 times with ice cold 50 mM Tris HCl, pH 7.4 buffer and then centrifuged at 200×g at 4° C. for 15 min. The supernatants were collected and centrifuged at 10000×g at 4° C. for 50 min. The pellets were then re-suspended in 100 mM NaCl, 20 mM Tris HCl, pH 7.4 buffer containing 1% v/v protease inhibitors (Calbiochem) and re-homogenized on ice. The homogenized membranes were then processed through a syringe equipped with a 26 gauge needle. Protein concentrations were determined by Bradford Assay and the membranes were stored at −80° C.
Radioligand Binding Studies:
Saturation experiments. A competitive NaV1.7 inhibitor having a methyl group was tritiated. Three tritiums were incorporated in place of methyl hydrogens to generate [^3H]compound. Binding of this radioligand was preformed in 5 mL borosilicate glass test tubes at room temperature. Binding was initiated by adding membranes to increasing concentrations of [^3H]compound in 100 mM NaCl, 20 mM Tris HCl, pH 7.4 buffer containing 0.01% w/v bovine serum albumin (BSA) for 18 h. Non-specific binding was determined in the presence of 1 μM unlabelled compound. After 18 h, the reactants were filtered through GF/C glass fiber filters presoaked in 0.5% w/v polyethylene imine Filters were washed with 15 mL ice cold 100 mM NaCl, 20 mM Tris HCl, pH7.4 buffer containing 0.25% BSA to separate bound from free ligand. [^3H]compound bound to filters was quantified by liquid scintillation counting.
Competitive Binding Experiments:
Binding reactions were preformed in 96-well polypropylene plates at room temperature for 18 h. In 360 μL, membranes were incubated with 100 pM [^3H]compound and increasing concentrations of Test Compound. Non-specific binding was defined in the presence of 1 μM unlabelled compound. Reactions were transferred and filtered through 96-well glass fiber/C filter plates presoaked with 0.5% polyethylene imine. The filtered reactions were washed 5 times with 200 μL ice cold buffer containing 0.25% BSA. Bound radioactivity was determined by liquid scintillation counting. Data Analysis: For saturation experiments, non-specific binding was subtracted from total binding to provide specific binding and these values were recalculated in terms of pmol ligand bound per mg protein. Saturation curves were constructed and dissociation constants were calculated using the single site ligand binding model: Beq=(Bmax*X)/(X+Kd), where Beq is the amount of ligand bound at equilibrium, Bmax is the maximum receptor density, Kd is the dissociation constant for the ligand, and X is the free ligand concentration. For competition studies percent inhibition was determined and IC50 values were calculated using a 4 parameter logistic model (% inhibition=(A+((B−A)/(1+((x/C)⨣D)))) using XLfit, where A and B are the maximal and minimum inhibition respectively, C is the IC50 concentration and D is the (Hill) slope.

T1 sequence (Q15858 whole entry): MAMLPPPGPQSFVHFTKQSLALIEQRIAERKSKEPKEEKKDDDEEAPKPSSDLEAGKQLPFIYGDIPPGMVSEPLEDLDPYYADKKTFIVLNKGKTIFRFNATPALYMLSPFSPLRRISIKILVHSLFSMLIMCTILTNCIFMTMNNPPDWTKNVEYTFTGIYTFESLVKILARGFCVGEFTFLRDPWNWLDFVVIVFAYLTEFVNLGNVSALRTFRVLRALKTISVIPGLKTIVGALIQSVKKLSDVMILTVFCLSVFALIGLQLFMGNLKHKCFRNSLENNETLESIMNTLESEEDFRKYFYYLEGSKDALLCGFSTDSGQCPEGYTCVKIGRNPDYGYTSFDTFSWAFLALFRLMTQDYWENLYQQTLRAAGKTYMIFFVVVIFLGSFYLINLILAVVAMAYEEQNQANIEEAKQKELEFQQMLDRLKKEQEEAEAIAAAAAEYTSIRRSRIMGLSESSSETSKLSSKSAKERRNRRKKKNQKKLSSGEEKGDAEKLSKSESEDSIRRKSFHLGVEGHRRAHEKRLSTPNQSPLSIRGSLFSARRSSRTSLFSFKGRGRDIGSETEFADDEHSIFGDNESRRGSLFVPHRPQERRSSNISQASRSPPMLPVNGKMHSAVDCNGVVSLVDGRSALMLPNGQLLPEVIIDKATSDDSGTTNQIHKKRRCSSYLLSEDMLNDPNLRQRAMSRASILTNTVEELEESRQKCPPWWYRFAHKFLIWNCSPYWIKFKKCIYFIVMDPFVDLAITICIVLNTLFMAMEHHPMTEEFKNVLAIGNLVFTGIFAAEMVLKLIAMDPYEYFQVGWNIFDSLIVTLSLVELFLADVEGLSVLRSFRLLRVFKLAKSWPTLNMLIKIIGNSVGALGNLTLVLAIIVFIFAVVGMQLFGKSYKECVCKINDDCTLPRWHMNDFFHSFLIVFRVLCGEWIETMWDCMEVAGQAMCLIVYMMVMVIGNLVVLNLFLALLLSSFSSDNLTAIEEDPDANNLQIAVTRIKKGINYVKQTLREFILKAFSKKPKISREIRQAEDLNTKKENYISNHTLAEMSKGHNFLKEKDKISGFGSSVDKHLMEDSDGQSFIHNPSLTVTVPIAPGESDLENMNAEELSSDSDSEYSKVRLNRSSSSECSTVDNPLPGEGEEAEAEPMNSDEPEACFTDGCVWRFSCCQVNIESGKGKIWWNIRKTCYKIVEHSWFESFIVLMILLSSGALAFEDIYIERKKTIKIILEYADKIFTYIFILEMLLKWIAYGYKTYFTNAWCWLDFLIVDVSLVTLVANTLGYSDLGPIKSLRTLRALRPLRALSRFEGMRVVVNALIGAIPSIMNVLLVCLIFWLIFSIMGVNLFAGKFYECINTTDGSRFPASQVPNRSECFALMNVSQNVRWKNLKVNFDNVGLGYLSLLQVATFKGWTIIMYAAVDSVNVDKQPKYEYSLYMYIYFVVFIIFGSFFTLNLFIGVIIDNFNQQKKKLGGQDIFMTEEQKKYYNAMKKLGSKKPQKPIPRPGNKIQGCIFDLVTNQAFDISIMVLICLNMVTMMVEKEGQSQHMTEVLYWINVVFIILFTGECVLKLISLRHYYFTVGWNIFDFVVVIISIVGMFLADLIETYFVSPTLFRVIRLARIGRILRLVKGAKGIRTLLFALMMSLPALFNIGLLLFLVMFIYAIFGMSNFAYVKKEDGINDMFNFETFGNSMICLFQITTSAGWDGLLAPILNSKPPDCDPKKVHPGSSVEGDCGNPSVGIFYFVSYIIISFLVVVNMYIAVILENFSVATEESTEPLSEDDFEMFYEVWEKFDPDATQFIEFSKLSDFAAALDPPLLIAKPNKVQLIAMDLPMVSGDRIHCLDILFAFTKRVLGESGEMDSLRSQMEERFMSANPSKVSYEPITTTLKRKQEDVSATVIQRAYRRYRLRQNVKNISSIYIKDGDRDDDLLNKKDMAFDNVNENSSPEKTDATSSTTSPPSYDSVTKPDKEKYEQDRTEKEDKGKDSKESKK
T1 sequence (Q07699 19-218 partner): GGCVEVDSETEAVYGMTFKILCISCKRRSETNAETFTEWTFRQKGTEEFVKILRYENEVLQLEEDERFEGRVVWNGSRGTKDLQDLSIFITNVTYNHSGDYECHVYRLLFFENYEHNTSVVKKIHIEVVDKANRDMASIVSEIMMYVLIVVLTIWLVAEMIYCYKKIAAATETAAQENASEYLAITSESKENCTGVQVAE

| SMILES | IC50 [nM] |
| --- | --- |
| CS(=O)(=O)NC(=O)c1cc(C2CC2)c(OCC2(O)CCN(Cc3cc(Cl)cc(Cl)c3)CC2)cc1F [Example 6, 5-Cyclopropyl-4-((1-(3,5-dichlorobenzyl)-4-hydroxypiperidin-4-yl)methoxy)-2-fluoro-N-(methylsulfonyl)benzamide] | 10 |
| COc1c(Cl)cc(Cl)cc1[C@@H](C)N1CCC(COc2cc(F)c(C(=O)NS(C)(=O)=O)cc2C2CC2)CC1 (single isomer, unassigned) [Example 15] | 5.1 |
| CC(c1ncc(Cl)cc1Cl)N1CCC(COc2cc(F)c(C(=O)NS(C)(=O)=O)cc2C2CC2)CC1 (centres unmarked) [Example 44, 5-cyclopropyl-4-((1-(1-(3,5-dichloropyridin-2-yl)ethyl)piperidin-4-yl)methoxy)-2-fluoro-N-(methylsulfonyl)benzamide] | 18 |
| COC1(COc2cc(F)c(C(=O)NS(C)(=O)=O)cc2C2CC2)CCN([C@@H](C)c2cc(Cl)cc(Cl)c2)CC1 (single isomer, unassigned) [Example 5] | 9.2 |

Results, then the compound that gave them:

| IC50 [nM] | SMILES |
| --- | --- |
| 5.5 | C[C@@H](c1cc(Cl)cc(Cl)c1C#N)N1CCC(COc2cc(F)c(C(=O)NS(C)(=O)=O)cc2C2CC2)CC1 (single isomer, unassigned) [Example 2] |
| 5.1 | CCS(=O)(=O)NC(=O)c1cc(C2CC2)c(OCC2CCN([C@@H](C)c3cc(Cl)cc(Cl)c3F)CC2)cc1F (single isomer, unassigned) [Example 32] |
| 7 | CS(=O)(=O)NC(=O)c1cc(C2CC2)c(OCC2(F)CCN(Cc3cc(C(F)(F)F)ccc3Cl)CC2)cc1F [Example 63, 4-((1-(2-chloro-5-(trifluoromethyl)benzyl)-4-fluoropiperidin-4-yl)methoxy)-5-cyclopropyl-2-fluoro-N-(methylsulfonyl)benzamide] |
| 6.5 | COc1c(Cl)cc(Cl)cc1CN1CCC(COc2cc(F)c(C(=O)NS(C)(=O)=O)cc2C2CC2)CC1 [Example 14, 5-Cyclopropyl-4-((1-(3,5-dichloro-2-methoxybenzyl)piperidin-4-yl)methoxy)-2-fluoro-N-(methylsulfonyl)benzamide] |
